Read-outs that look alike come from different tables or passages of the source.
Tests used:
Assay in all cases: Test C pre/postemergence
Format in all cases: in vivo
[1] = tested on: velvetleaf (Abutilon theophrasti); conditions: Abutilon theophrasti; for pest or weed control at 16 g/ha: 16 g ai/ha; for pest or weed control at 31 g/ha: 31 g ai/ha; for pest or weed control at 62 g/ha: 62 g ai/ha
Method in brief: (§1)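 Rating scale 0–100: 0 means no effect, 100 complete control; taken visually 12 to 14 days post-treatment versus controls. Pre- and postemergence greenhouse applications, postemergence at 1- to 4-leaf stage, non-phytotoxic solvent with surfactant as carrier.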

[2] = tested on: eastern black nightshade (Solanum ptycanthum); conditions: Solanum, pre-emergence, Preemergence, scale 0 to 100, 0 no effect, 100 complete control, read-out: Plant response rating, Nightshade
Method in brief: as §1

[3] = tested on: pigweed (Amaranthus retroflexus); conditions: Amaranthus retroflexus; for pest or weed control at 16 g/ha: 16 g ai/ha; for pest or weed control at 31 g/ha: 31 g ai/ha; for pest or weed control at 62 g/ha: 62 g ai/ha
Method in brief: as §1

[4] = tested on: johnsongrass (Sorghum halepense); conditions: Sorghum halepense; for pest or weed control at 16 g/ha: 16 g ai/ha; for pest or weed control at 31 g/ha: 31 g ai/ha; for pest or weed control at 62 g/ha: 62 g ai/ha; for pest or weed control at 125 g/ha: 125 g ai/ha
Method in brief: as §1

[5] = tested on: lambsquarters (Chenopodium album); conditions: Chenopodium album; for pest or weed control at 16 g/ha: 16 g ai/ha; for pest or weed control at 31 g/ha: 31 g ai/ha; for pest or weed control at 62 g/ha: 62 g ai/ha; for pest or weed control at 125 g/ha: 125 g ai/ha
Method in brief: as §1

[6] = tested on: bermudagrass (Cynodon dactylon); conditions: Cynodon dactylon; for pest or weed control at 16 g/ha: 16 g ai/ha; for pest or weed control at 31 g/ha: 31 g ai/ha; for pest or weed control at 62 g/ha: 62 g ai/ha; for pest or weed control at 125 g/ha: 125 g ai/ha
Method in brief: as §1

[7] = tested on: goosegrass (Eleusine indica); conditions: Eleusine indica; for pest or weed control at 16 g/ha: 16 g ai/ha; for pest or weed control at 31 g/ha: 31 g ai/ha; for pest or weed control at 62 g/ha: 62 g ai/ha; for pest or weed control at 125 g/ha: 125 g ai/ha
Method in brief: as §1

[8] = tested on: common ragweed (Ambrosia elatior); conditions: Ambrosia artemisiifolia; for pest or weed control at 16 g/ha: 16 g ai/ha; for pest or weed control at 31 g/ha: 31 g ai/ha; for pest or weed control at 62 g/ha: 62 g ai/ha
Method in brief: as §1

kochia (Kochia scoparia) = conditions: Bassia scoparia; for pest or weed control at 16 g/ha: 16 g ai/ha; for pest or weed control at 31 g/ha: 31 g ai/ha; for pest or weed control at 62 g/ha: 62 g ai/ha; for pest or weed control at 125 g/ha: 125 g ai/ha
Method in brief: as §1

soybean (Glycine max) = conditions: Glycine max; for plant injury at 16 g/ha: 16 g ai/ha; for plant injury at 31 g/ha: 31 g ai/ha; for plant injury at 62 g/ha: 62 g ai/ha
Method in brief: as §1

[9] = tested on: common (oilseed) sunflower (Helianthus annuus); conditions: Helianthus annuus, pre-emergence, Preemergence, scale 0 to 100, 0 no effect, 100 complete control, read-out: Plant response rating, Sunflower
Method in brief: as §1

[10] = tested on: cocklebur (Xanthium strumarium); conditions: Xanthium strumarium; for pest or weed control at 16 g/ha: 16 g ai/ha; for pest or weed control at 31 g/ha: 31 g ai/ha; for pest or weed control at 62 g/ha: 62 g ai/ha; for pest or weed control at 125 g/ha: 125 g ai/ha
Method in brief: as §1

[11] = post-emergence, Postemergence, read-out: Plant response rating (scale of 0 to 100), Velvetleaf
[12] = pre-emergence, Preemergence, scale 0 to 100, 0 no effect, 100 complete control, read-out: Plant response rating, Velvetleaf
[13] = post-emergence, Postemergence, read-out: Plant response rating (scale of 0 to 100), Pigweed
[14] = pre-emergence, Preemergence, scale 0 to 100, 0 no effect, 100 complete control, read-out: Plant response rating, Pigweed
[15] = post-emergence, Postemergence, read-out: Plant response rating (scale of 0 to 100), Johnsongrass
[16] = pre-emergence, Preemergence, scale 0 to 100, 0 no effect, 100 complete control, read-out: Plant response rating, Johnsongrass
[17] = post-emergence, Postemergence, read-out: Plant response rating (scale of 0 to 100), Lambsquarters
[18] = pre-emergence, Preemergence, scale 0 to 100, 0 no effect, 100 complete control, read-out: Plant response rating, Lambsquarters
[19] = post-emergence, Postemergence, read-out: Plant response rating (scale of 0 to 100), Bermudagrass
[20] = post-emergence, Postemergence, scale 0 to 100 (0 no effect, 100 complete control), read-out: Bermudagrass plant response rating
[21] = pre-emergence, Preemergence, scale 0 to 100, 0 no effect, 100 complete control, read-out: Plant response rating, Bermudagrass
[22] = post-emergence, Postemergence, read-out: Plant response rating (scale of 0 to 100), Goosegrass
[23] = pre-emergence, Preemergence, scale 0 to 100, 0 no effect, 100 complete control, read-out: Plant response rating, Goosegrass
[24] = post-emergence, Postemergence, read-out: Plant response rating (scale of 0 to 100), Ragweed
[25] = pre-emergence, Preemergence, scale 0 to 100, 0 no effect, 100 complete control, read-out: Plant response rating, Ragweed
[26] = post-emergence, Postemergence, read-out: Plant response rating (scale of 0 to 100), Kochia
[27] = pre-emergence, Preemergence, scale 0 to 100, 0 no effect, 100 complete control, read-out: Plant response rating, Kochia
[28] = post-emergence, Postemergence, read-out: Plant response rating (scale of 0 to 100), Soybean
[29] = pre-emergence, Preemergence, scale 0 to 100, 0 no effect, 100 complete control, read-out: Plant response rating, Soybean
[30] = post-emergence, Postemergence, read-out: Plant response rating (scale of 0 to 100), Cocklebur
[31] = pre-emergence, Preemergence, scale 0 to 100, 0 no effect, 100 complete control, read-out: Plant response rating, Cocklebur

For `Nc1nc(-c2ccc(Cl)cc2)nc(C(=O)O)c1Cl` [Compound 65, 6-amino-5-chloro-2-(4-chlorophenyl)-4-pyrimidinecarboxylic acid], the pest or weed control at 16 g/ha [1, 11] was 65%, the pest or weed control at 31 g/ha [1, 11] was 80% and the pest or weed control at 62 g/ha [1, 11] was 80%. For the same compound, the pest or weed control at 125 g/ha ([1]; post-emergence, Postemergence, 125 g ai/ha, scale 0 to 100 (0 no effect, 100 complete control), read-out: Velvetleaf plant response rating) was 90%, the pest or weed control at 16 g/ha [1, 12] was 0% and the pest or weed control at 31 g/ha [1, 12] was 40%. For the same compound, the pest or weed control at 62 g/ha [1, 12] was 80%, the pest or weed control at 16 g/ha ([2]; 16 g ai/ha) was 0% and the pest or weed control at 31 g/ha ([2]; 31 g ai/ha) was 0%. For the same compound, the pest or weed control at 16 g/ha [3, 13] was 90%, the pest or weed control at 31 g/ha [3, 13] was 90% and the pest or weed control at 62 g/ha [3, 13] was 100%. It also gave a pest or weed control at 125 g/ha ([3]; post-emergence, Postemergence, 125 g ai/ha, scale 0 to 100 (0 no effect, 100 complete control), read-out: Pigweed plant response rating) of 100%, a pest or weed control at 16 g/ha [3, 14] of 40% and a pest or weed control at 31 g/ha [3, 14] of 80%. It also gave a pest or weed control at 62 g/ha [3, 14] of 80%, a pest or weed control at 16 g/ha [4, 15] of 45% and a pest or weed control at 31 g/ha [4, 15] of 60%. For the same compound, the pest or weed control at 62 g/ha [4, 15] was 85%, the pest or weed control at 125 g/ha ([4]; post-emergence, Postemergence, scale 0 to 100 (0 no effect, 100 complete control), read-out: Johnsongrass plant response rating) was 85% and the pest or weed control at 16 g/ha [4, 16] was 0%. For the same compound, the pest or weed control at 31 g/ha [4, 16] was 50%, the pest or weed control at 62 g/ha [4, 16] was 60% and the pest or weed control at 125 g/ha ([4]; pre-emergence, Preemergence, scale 0 to 100, read-out: Plant response rating, Johnsongrass) was 70%. For the same compound, the pest or weed control at 16 g/ha [5, 17] was 85%, the pest or weed control at 31 g/ha [5, 17] was 90% and the pest or weed control at 62 g/ha [5, 17] was 90%. It also gave a pest or weed control at 125 g/ha ([5]; post-emergence, Postemergence, scale 0 to 100 (0 no effect, 100 complete control), read-out: Lambsquarters plant response rating) of 95%, a pest or weed control at 16 g/ha [5, 18] of 0% and a pest or weed control at 31 g/ha [5, 18] of 50%. It also gave a pest or weed control at 62 g/ha [5, 18] of 80%, a pest or weed control at 125 g/ha ([5]; pre-emergence, Preemergence, scale 0 to 100, read-out: Plant response rating, Lambsquarters) of 100% and a pest or weed control at 16 g/ha [6, 19] of 60%. The pest or weed control at 31 g/ha [6, 19] was 60%, the pest or weed control at 62 g/ha [6, 20] was 70% and the pest or weed control at 125 g/ha [6, 20] was 70%. For the same compound, the pest or weed control at 16 g/ha [6, 21] was 0%, the pest or weed control at 31 g/ha [6, 21] was 50% and the pest or weed control at 62 g/ha [6, 21] was 70%. For the same compound, the pest or weed control at 125 g/ha ([6]; pre-emergence, Preemergence, scale 0 to 100, read-out: Plant response rating, Bermudagrass) was 80%, the pest or weed control at 16 g/ha [7, 22] was 50% and the pest or weed control at 31 g/ha [7, 22] was 50%. For the same compound, the pest or weed control at 62 g/ha [7, 22] was 70%, the pest or weed control at 125 g/ha ([7]; post-emergence, Postemergence, scale 0 to 100 (0 no effect, 100 complete control), read-out: Goosegrass plant response rating) was 70% and the pest or weed control at 16 g/ha [7, 23] was 0%. It also gave a pest or weed control at 31 g/ha [7, 23] of 0%, a pest or weed control at 62 g/ha [7, 23] of 0% and a pest or weed control at 125 g/ha ([7]; pre-emergence, Preemergence, scale 0 to 100, read-out: Plant response rating, Goosegrass) of 50%. It also gave a pest or weed control at 16 g/ha [8, 24] of 80%, a pest or weed control at 31 g/ha [8, 24] of 90% and a pest or weed control at 62 g/ha [8, 24] of 95%. For the same compound, the pest or weed control at 125 g/ha ([8]; post-emergence, Postemergence, 125 g ai/ha, scale 0 to 100 (0 no effect, 100 complete control), read-out: Ragweed plant response rating) was 95%, the pest or weed control at 16 g/ha [8, 25] was 85% and the pest or weed control at 31 g/ha [8, 25] was 85%. For the same compound, the pest or weed control at 62 g/ha [8, 25] was 90%, the pest or weed control at 16 g/ha (kochia (Kochia scoparia); [26]) was 85% and the pest or weed control at 31 g/ha (kochia (Kochia scoparia); [26]) was 85%. For the same compound, the pest or weed control at 62 g/ha (kochia (Kochia scoparia); [26]) was 85%, the pest or weed control at 125 g/ha (kochia (Kochia scoparia); post-emergence, Postemergence, scale 0 to 100 (0 no effect, 100 complete control), read-out: Kochia plant response rating) was 90% and the pest or weed control at 16 g/ha (kochia (Kochia scoparia); [27]) was 0%. The pest or weed control at 31 g/ha (kochia (Kochia scoparia); [27]) was 0%, the pest or weed control at 62 g/ha (kochia (Kochia scoparia); [27]) was 50% and the pest or weed control at 125 g/ha (kochia (Kochia scoparia); pre-emergence, Preemergence, scale 0 to 100, read-out: Plant response rating, Kochia) was 70%. It also gave a plant injury at 16 g/ha (soybean (Glycine max); [28]) of 100%, a plant injury at 31 g/ha (soybean (Glycine max); [28]) of 100% and a plant injury at 62 g/ha (soybean (Glycine max); [28]) of 100%. It also gave a plant injury at 125 g/ha (soybean (Glycine max); post-emergence, Postemergence, 125 g ai/ha, scale 0 to 100 (0 no effect, 100 complete control), read-out: Soybean plant response rating) of 100%, a plant injury at 16 g/ha (soybean (Glycine max); [29]) of 85% and a plant injury at 31 g/ha (soybean (Glycine max); [29]) of 95%. It also gave a plant injury at 62 g/ha (soybean (Glycine max); [29]) of 95%, a pest or weed control at 16 g/ha ([9]; 16 g ai/ha) of 40% and a pest or weed control at 31 g/ha ([9]; 31 g ai/ha) of 70%. The pest or weed control at 62 g/ha ([9]; 62 g ai/ha) was 95%, the pest or weed control at 16 g/ha [10, 30] was 90% and the pest or weed control at 31 g/ha [10, 30] was 100%. The pest or weed control at 62 g/ha [10, 30] was 100%, the pest or weed control at 125 g/ha ([10]; post-emergence, Postemergence, scale 0 to 100 (0 no effect, 100 complete control), read-out: Cocklebur plant response rating) was 100% and the pest or weed control at 16 g/ha [10, 31] was 0%. It also gave a pest or weed control at 31 g/ha [10, 31] of 30%, a pest or weed control at 62 g/ha [10, 31] of 50% and a pest or weed control at 125 g/ha ([10]; pre-emergence, Preemergence, scale 0 to 100, read-out: Plant response rating, Cocklebur) of 90%.

From US8802597B2, “Herbicidal pyrimidines” (E I du Pont de Nemours and Company, priority 2003, dated 2014)
